We go through 45 compounds from US7598397B2, “Sulfonamide peri-substituted bicyclics for occlusive artery disease” (deCODE genetics ehf, priority 2004, dated 2009).

Some results are limits rather than exact numbers.

For one assay, the system named is female C57BL/6 mice. As to the kind of experiment: pulmonary thromboembolism induced by arachidonic acid (platelet aggregation in vivo). Details: species or system mouse. The conditions noted are these: 100 mg/kg orally, 30 min before arachidonic acid 30 mg/kg i.v.; survival one hour after challenge. The method, then:
The compounds of the invention also were assayed for their effects on platelet aggregation in vivo. An in vivo test of platelet activation is the induction of pulmonary thromboembolism by arachidonic acid, a precursor of prostaglandin formation. Inhibitors of prostaglandin synthesis, e.g., a COX-1 inhibitor such as asprin, are protective in the assay. For the pulmonary thromboembolism assay, concious female C57BL/6 mice were dosed orally with the test compounds and 30 min later thromboembolism was induced by injection of arachidonic acid into a tail vein at a dose of 30 mg per kg body weight. Survival was evaluated one hour after the challenge with arachidonic acid, as mice that survive for that length of time usually recovered fully. The arachidonic acid injection was given via a lateral tail vein in a mouse that had been warmed briefly under a heat lamp (dilation of the tail veins using heat facilitates placing the injection). An insulin syringe, 0.5 mL (from Becton Dickinson) was used for dosing. The dose volume given of both the test compound and the arachidonic acid was adjusted to the weight of the mouse (the dose volume p.o. for test compounds and i.v. for arachidonic acid solution was 10 μL and 5 μL per gram body weight, respectively). The survival rate for mice treated with arachidonic acid only was 1 per 10 mice evaluated or 10%. Survival rates for mice treated with test compounds (100 mg/kg, orally) and then arachidonic acid are shown below in Table 4.
With `Cc1cn(Cc2ccc3ccccc3c2)c2c(C=CC(=O)NS(=O)(=O)c3cc(Cl)c(Cl)s3)cc(F)cc12` [Compound P068], the “No. mice surviving/Total no. of mice evalauted” value is given as 4/14 and the Survival rate is 28%.

For the compound `O=C(COc1cccc2[nH]cc(S(=O)(=O)c3ccc4ccccc4c3)c12)NS(=O)(=O)c1cc(Cl)c(Cl)s1` [Compound P150], the “No. mice surviving/Total no. of mice evalauted” value was 4/8 and the Survival rate was found to be 50%.

The target of the next assay is T1, prostanoid EP3 receptors (Homo sapiens, UniProt P43115).
T1 sequence (P43115 1-390): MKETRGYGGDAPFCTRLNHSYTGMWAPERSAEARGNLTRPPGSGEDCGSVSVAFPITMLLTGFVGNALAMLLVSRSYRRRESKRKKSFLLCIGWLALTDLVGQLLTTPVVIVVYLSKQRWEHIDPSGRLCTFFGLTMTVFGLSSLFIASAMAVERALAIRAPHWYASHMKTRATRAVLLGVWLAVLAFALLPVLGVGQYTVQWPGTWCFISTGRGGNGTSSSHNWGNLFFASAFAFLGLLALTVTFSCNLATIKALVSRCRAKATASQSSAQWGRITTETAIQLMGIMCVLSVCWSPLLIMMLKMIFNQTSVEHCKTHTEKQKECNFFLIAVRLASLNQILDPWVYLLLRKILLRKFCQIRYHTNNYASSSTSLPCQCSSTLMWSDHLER
As to the kind of experiment: binding on prostanoid EP3 receptors (method of Abramovitz et al.). The settings on record: read-out: Activity (EP3 receptor binding, IC50 class). The procedure: The compounds of the invention were assayed for their binding on prostanoid EP3 receptors according to the method of Abramovitz et al. [Bioch. Biophys.
Regarding `CC1C(=O)N(Cc2ccc3ccccc3c2)c2c(C=CC(=O)NS(=O)(=O)c3cccs3)cccc21` (centres unmarked) [Compound P059], the IC50 was under 1 µM.

On to `Cc1cn(Cc2cn3ccccc3n2)c2c(C=CC(=O)NS(=O)(=O)c3cc(F)c(F)cc3F)cc(F)cc12` [Compound P402], for which the IC50 was under 1 µM.

`O=C(C=Cc1cccc2c1N(Cc1ccc(Cl)cc1Cl)C(=O)C2O)NS(=O)(=O)c1cc(Cl)c(Cl)s1` (centres unmarked) [Compound P130]: the IC50 is under 1 µM.

For `CN1C(=O)C(Nc2ccc3ccccc3c2)c2c(C=CC(=O)NS(=O)(=O)c3cc(Cl)c(Cl)s3)cccc21` (centres unmarked) [Compound P242], the half-maximal inhibitory concentration (IC50) was under 1 µM.

`Cn1cc(C=CC(=O)NS(=O)(=O)c2ccccc2F)c2c(Oc3ccc4ccccc4c3)cccc21` [Compound P364]: the IC50 was under 1 µM.

For the compound `Cn1cc(C=CC(=O)NS(=O)(=O)c2ccc(F)c(F)c2)c2c(Oc3ccc(F)c(F)c3)cccc21` [Compound P319], the IC50 is under 1 µM.

In the case of `CC12CCCC(C=CC(=O)NS(=O)(=O)c3cc(F)c(F)cc3F)=C1N(Cc1ccc(F)cc1)C(=O)C2` (centres unmarked) [Compound P300], the IC50 was under 1 µM.

With `Cc1cn(Cc2ccc3c(c2)OCO3)c2c(/C=C/C(=O)NS(=O)(=O)c3cc(Cl)c(Cl)s3)cccc12` [Compound P139], the IC50 is under 1 µM.

For `COc1cc(CN2C(=O)COc3cccc(OCC(=O)NS(=O)(=O)c4cccs4)c32)cc(OC)c1` [Compound P041], the IC50 lay in the range of 1 to 10 µM.

For `CC12CCCC(/C=C/C(=O)NS(=O)(=O)c3cc(Cl)c(Cl)s3)=C1N(Cc1ccc(F)c(F)c1)C(=O)C2` (centres unmarked) [Compound P264], the IC50 was under 1 µM.

As for `O=C(COc1cccc2[nH]cc(Sc3ncccn3)c12)NS(=O)(=O)c1cc(Cl)c(Cl)s1` [Compound P211], the 50% inhibitory concentration (IC50) is under 1 µM.

For `Cc1cn(CCC(=O)NS(=O)(=O)c2cc(F)c(F)cc2F)c2c(Oc3ccc(Cl)cc3Cl)cc(F)cc12` [Compound P382], the IC50 is under 1 µM.

Turning to `O=C(COc1cccc2[nH]cc(Sc3ccc4ccccc4c3)c12)NS(=O)(=O)c1cccs1` [Compound P166], the concentration for half-maximal inhibition (IC50) was under 1 µM.

Regarding `O=C(C=Cc1cccc2c1N(Cc1ccc(Cl)cc1Cl)C(=O)C2=O)NS(=O)(=O)c1cc(Cl)c(Cl)s1` [Compound P113], the half-maximal inhibitory concentration (IC50) was under 1 µM.

In the case of `CC1C(=O)N(Cc2ccc(Cl)cc2Cl)c2c(C=CC(=O)NS(=O)(=O)c3cccs3)cc(F)cc21` (centres unmarked) [Compound P065], the half-maximal inhibitory concentration (IC50) is under 1 µM.

With `Cc1cn(Cc2ccc(F)c(F)c2)c2c(/C=C/C(=O)NS(=O)(=O)c3cccs3)cccc12` [Compound P103], the IC50 is under 1 µM.

For `CC(=O)c1cn(Cc2ccc(Cl)cc2Cl)c2c(C=CC(=O)NS(=O)(=O)c3cccs3)cccc12` [Compound P085], the IC50 is under 1 µM.

For the compound `O=C(C=Cc1cc(F)cc2c(C(=O)O)cn(Cc3ccc(Cl)cc3Cl)c12)NS(=O)(=O)c1cc(Cl)c(Cl)s1` [Compound P398], the IC50 is under 1 µM.

For `O=C(COc1cccc2c1N(Cc1ccc(Cl)cc1)C(=O)CO2)NS(=O)(=O)c1cccs1` [Compound P025], the half-maximal inhibitory concentration (IC50) is over 10 µM.

Consider `Cc1cn(Cc2c(Cl)cccc2Cl)c2c(/C=C/C(=O)NS(=O)(=O)c3cc(Cl)c(Cl)s3)cccc12` [Compound P124], for which the half-inhibitory concentration (IC50) was under 1 µM.

Regarding `Cn1cc(C=CC(=O)NS(=O)(=O)c2cc(F)ccc2F)c2c(Oc3ccc4ccccc4c3)cccc21` [Compound P359], the 50% inhibitory concentration (IC50) is under 1 µM.

Regarding `Cc1cn(Cc2cn3ccccc3n2)c2c(C=CC(=O)NS(=O)(=O)c3ccc(F)cc3F)cc(F)cc12` [Compound P413], the IC50 is under 1 µM.

Consider `Cc1cn(Cc2ccccc2C#N)c2c(/C=C/C(=O)NS(=O)(=O)c3cc(Cl)c(Cl)s3)cc(F)cc12` [Compound P389], for which the 50% inhibitory concentration (IC50) is under 1 µM.

Take `CC12CCCC(C=CC(=O)NS(=O)(=O)c3ccc(F)c(F)c3)=C1N(Cc1ccc(F)cc1)C(=O)C2` (centres unmarked) [Compound P294]: the IC50 was under 1 µM.

Regarding `Cc1cn(Cc2ccc(Cl)c(Cl)c2)c2c(/C=C/C(=O)NS(=O)(=O)c3cc(Cl)c(Cl)s3)cccc12` [Compound P118], the IC50 was under 1 µM.

As to `Cn1cc(/C=C/C(=O)NS(=O)(=O)c2cc(Cl)c(Cl)s2)c2c(Oc3ccc(Cl)cc3)cccc21` [Compound P311], the IC50 was under 1 µM.

`Cc1cn(CCC(=O)NS(=O)(=O)c2ccc(F)c(F)c2)c2c(Oc3ccc(Cl)cc3Cl)cc(F)cc12` [Compound P383]: the 50% inhibitory concentration (IC50) was under 1 µM.

On to `Cc1cn(Cc2cn3ccccc3n2)c2c(C=CC(=O)NS(=O)(=O)c3cccc(F)c3)cc(F)cc12` [Compound P401], for which the concentration for half-maximal inhibition (IC50) is under 1 µM.

Regarding `CN1C(=O)C(Nc2ccc(Cl)cc2Cl)c2c(C=CC(=O)NS(=O)(=O)c3cc(Cl)c(Cl)s3)cccc21` (centres unmarked) [Compound P252], the 50% inhibitory concentration (IC50) is under 1 µM.

Regarding `CC(C)(C)OC(=O)N1CCCc2cccc(OCC(=O)NS(=O)(=O)c3cccs3)c21` [Compound P273], the half-maximal inhibitory concentration (IC50) is under 1 µM.

Consider `CC12CCCC(C=CC(=O)NS(=O)(=O)c3ccc(F)c(F)c3)=C1N(Cc1ccc(F)c(F)c1)C(=O)C2` (centres unmarked) [Compound P304], for which the half-maximal inhibitory concentration (IC50) was under 1 µM.

For `CC12CCCC(C=CC(=O)NS(=O)(=O)c3cc(Cl)c(Cl)s3)=C1N(Cc1ccc(F)cc1)C(=O)C2` (centres unmarked) [Compound P263], the IC50 was under 1 µM.

With `CC12CCCC(C=CC(=O)NS(=O)(=O)c3ccc(Cl)s3)=C1N(Cc1ccc(Cl)cc1Cl)C(=O)C2` (centres unmarked) [Compound P279], the half-maximal inhibitory concentration (IC50) was under 1 µM.

As for `CC1C(=O)N(Cc2ccc3ccccc3c2)c2c(C=CC(=O)NS(=O)(=O)c3cccs3)cc(F)cc21` (centres unmarked) [Compound P066], the half-inhibitory concentration (IC50) is under 1 µM.

In the case of `Cn1cc(C=CC(=O)NS(=O)(=O)c2ccc(F)c(F)c2)c2c(Oc3ccc(Cl)cc3F)cccc21` [Compound P338], the IC50 is under 1 µM.

In the case of `O=C(COc1cccc2oc(=O)n(Cc3ccc4c(c3)OCO4)c12)NS(=O)(=O)c1cccs1` [Compound P050], the 50% inhibitory concentration (IC50) fell in the range of 1 to 10 µM.

Take `Cn1cc(C=CC(=O)NS(=O)(=O)c2cc(F)cc(F)c2)c2c(Oc3ccc4ccccc4c3)cccc21` [Compound P361]: the 50% inhibitory concentration (IC50) is under 1 µM.

`COc1ccc(Sc2c[nH]c3cccc(OCC(=O)NS(=O)(=O)c4cc(Cl)c(Cl)s4)c23)cc1` [Compound P200]: the IC50 is under 1 µM.

Regarding `COc1ccc(S(=O)(=O)NC(=O)C=Cc2cn(C)c3cccc(Oc4ccc5ccccc5c4)c23)cc1` [Compound P366], the half-inhibitory concentration (IC50) is under 1 µM.

Turning to `O=C(C=Cc1cccc2c1N(Cc1ccc3ccccc3c1)C(=O)C21OCCO1)NS(=O)(=O)c1cccs1` [Compound P083], the half-inhibitory concentration (IC50) was under 1 µM.

For the compound `CC1(F)C(=O)N(Cc2ccc3ccccc3c2)c2c(C=CC(=O)NS(=O)(=O)c3cccs3)cccc21` (centres unmarked) [Compound P160], the IC50 is under 1 µM.

For `CCOC(=O)C12CCCC(C=CC(=O)NS(=O)(=O)c3ccc(F)c(F)c3)=C1N(Cc1ccc(Cl)cc1Cl)C(=O)C2` (centres unmarked) [Compound P346], the IC50 was under 1 µM.

In the case of `O=Cc1cn(Cc2ccc(Cl)cc2Cl)c2c(C=CC(=O)NS(=O)(=O)c3cccs3)cccc12` [Compound P069], the half-maximal inhibitory concentration (IC50) was under 1 µM.
